Values quoted from earlier work as cited in US6482908B1, “Template-directed ring-closing metathesis and ring-opening metathesis polymerization of functionalized dienes” (California Institute of Technology, priority 1997, dated 2002).

System: cell attachment and spreading

Q: With “Gly-Arg-Gly-Asp-Tyr (GRGDY; printed: Gly-Arg-Gly-Asp-Tyr) [oligopeptide immobilized onto glass substrate, literature adhesion agent]” as the substance, how does the “cell adhesion activity of immobilized peptide” value (immobilized onto a poorly adhesive glass substrate) read?
A: Its value is “extremely potent adhesion agent”.

Q: And the “minimum surface density necessary to induce normal cell attachment and spreading” value (peptide immobilized onto poorly adhesive glass substrate, ~140 nm between peptides)?
A: Its value is 10 fmol/cm^2.
